Test results published in patent US7056940B2, “Insecticidal 3-(2,6-disubstituted phenyl)-5-[5-arylthien-2-yl]-1,2,4-triazoles” (Dow AgroSciences LLC, priority 2001, dated 2006).

How the values were obtained:
Format in all cases: in vivo
[1] = test system: Two-spotted Spider Mite (Tetranychus urticae); experiment: Insecticidal test for two-spotted spider mite, ovicide method; parameters: key: A: 90–100; B: 80–89; C: 70–79; D: 60–69; E: 50–59; F: less than 50; G: Inactive; conditions: cotton leaf discs, 6 days
Description: Insecticidal Test for Two-spotted Spider Mite (Tetranychus urticae)
Ten adult female two-spotted spider mites were placed on eight 2.2 cm leaf discs of cotton leaf, allowed to oviposit over 24 hours, and thereafter removed. […] Discs were placed on an agar substrate and held at 24° C. and 90% RH for 6 days.

[2] = test system: Cabbage Looper (Trichoplusia ni); experiment: Insecticidal test for cabbage looper, treated cabbage leaf disc; conditions: cabbage leaf-dip, 2nd instar larvae, 5 days
Text: (§1) The compounds are useful for reducing populations of insects and mites and are useful in a method of inhibiting an insect or mite population which comprises applying to a locus of the insect or mite an effective insect- or mite-inactivating amount of a compound of formula (1). The “locus” of insects or mites is a term used herein to refer to the environment in which the insects or mites live or where their eggs are present, including the air surrounding them, the food they eat, or objects which they contact. For example, insects or mites which eat or contact edible or ornamental plants can be controlled by applying the active compound to plant parts such as the seed, seedling, or cutting which is planted, the leaves, stems, fruits, grain, or roots, or to the soil in which the roots are growing. It is contemplated that the compounds might also be useful to protect textiles, paper, stored grain, seeds, domesticated animals, buildings or human beings by applying an active compound to or near such objects. The term “inhibiting an insect or mite” refers to a decrease in the numbers of living insects or mites, or a decrease in the number of viable insect or mite eggs. The extent of reduction accomplished by a compound depends, of course, upon the application rate of the compound, the particular compound used, and the target insect or mite species. At least an inactivating amount should be used. The terms “insect-inactivating amount” and “mite-inactivating amount” are used to describe the amount, which is sufficient to cause a measurable reduction in the treated insect or mite population. Generally an amount in the range from about 1 to about 1000 ppm by weight active compound is used. For example, insects and mites which can be inhibited include, but are not limited to: • Lepidoptera—Heliothis spp., Helicoverpa spp., Spodoptera spp., Mythimna unipuncta, Agrotis ipsilon, Earias spp., Euxoa auxiliaris, Trichoplusia ni, Anticarsia gemmatalis, Rachiplusia nu, Plutella xylostella, Chilo spp., Scirpophaga incertulas, Sesamia inferens, Cnaphalocrocis medinalis, Ostrinia nubilalis, Cydia pomonella, Carposina niponensis, Adoxophyes orana, Archips argyrospilus, Pandemis heparana, Epinotia aporema, Eupoecilia ambiguella, Lobesia botrana, Polychrosis viteana, Pectinophora gossypiella, Pieris rapae, Phyllonorycter spp., Leucoptera malifoliella, Phyllocnisitis citrella • Coleoptera—Diabrotica spp., Leptinotarsa decemlineata, Oulema oryzae, Anthonomus grandis, Lissorhoptrus oryzophilus, Agriotes spp., Melanotus communis, Popillia japonica, Cyclocephala spp., Tribolium spp. • Homoptera—Aphis spp., Myzus persicae, Rhopalosiphum spp., Dysaphis plantaginea, Toxoptera spp., Macrosiphum euphorbiae, Aulacorthum solani, Sitobion avenae, Metopolophium dirhodum, Schizaphis graminum, Brachycolus noxius, Nephotettix spp., Nilaparvata lugens, Sogatella furcifera, Laodelphax striatellus, Bemisia tabaci, Trialeurodes vaporariorum, Aleurodes proletella, Aleurothrixus floccosus, Quadraspidiotus perniciosus, Unaspis yanonensis, Ceroplastes rubens, Aonidiella aurantii • Hemiptera—Lygus spp., Eurygaster maura, Nezara viridula, Piezodorus guildingi, Leptocorisa varicornis • Thysanoptera—Frankliniella occidentalis, Thrips spp., Scirtothrips dorsalis • Isoptera—Reticulitermes flavipes, Coptotermes formosanus • Orthoptera—Blattella germanica, Blatta orientalis, Gryllotalpa spp. • Diptera—Liriomyza spp., Musca domestica, Aedes spp., Culex spp., Anopheles spp. • Hymenoptera—Iridomyrmex humilis, Solenopsis spp., Monomorium pharaonis, Atta spp., Pogonomyrmex spp., Camponotus spp. • Siphonaptera—Ctenophalides spp., Pulex irritans • Acarina—Tetranychus spp., Panonychus spp., Eotetranychus carpini, Phyllocoptruta oleivora, Aculus pelekassi, Brevipalpus phoenicis, Boophilus spp., Dermacentor variabilis, Rhipicephalus sanguineus, Amblyomma americanum, Ixodes spp., Notoedres cati, Sarcoptes scabiei, Dermatophagoides spp. […]

[3] = test system: Sweetpotato Whitefly (Bemisia tabacia); experiment: Insecticidal test for sweetpotato whitefly, spray on cotton plants; parameters: key: A: 90–100; B: 80–89; C: 70–79; D: 60–69; E: 50–59; F: less than 50; G: Inactive; conditions: 200 ppm spray, 13 days, large nymphs
Description: Insecticidal Test for Sweetpotato Whitefly (Bemisia tabacia)
Four mg of each test compound was dissolved by adding 4 mL of a 90:10 acetone:ethanol solvent mixture to the vial containing the sample compound. This solution was added to 16 mL of water containing 0.05% Tween 20 surfactant to produce 20 mL of an 200 ppm spray solution.
Five-week-old cotton plants reared in a greenhouse were stripped of all foliage except for the two uppermost true leaves that were greater than 5 cm in diameter. These plants were then placed into a laboratory colony of whiteflies for two days for oviposition by the colony females. All whiteflies were then removed from the test plants with pressurized air. The spray solution was then applied to the test plants with a hand-held syringe fitted with hollow cone nozzle. One mL spray solution was applied to each leaf top and bottom for a total of 4 mL per plant. Four replications of each test compound utilized a total of 16 mL spray solution. Plants were air dried and then placed in a holding chamber (28° C. and 60% RH) for 13 days. Compound efficacy was evaluated by counting, under an illuminated magnifying glass, the number of large nymphs (3rd–4th instar) per leaf.
Percent control based on reduction of large nymphs of a test compound compared to solution-only (no test compound) sprayed plants is reported in Tables 1–4.

[4] = test system: Tobacco Budworm (Heliothis virescens); experiment: Insecticidal test for tobacco budworm, treated cotton cotyledon leaf disc; parameters: key: A: 90–100; B: 80–89; C: 70–79; D: 60–69; E: 50–59; F: less than 50; G: Inactive; conditions: cotton cotyledon leaf-dip, 2nd instar larvae, 5 days
Text: as §1

[5] = test system: Beet Armyworm (Spodoptera exigua); experiment: Insecticidal test for beet armyworm, treated lepidopteran diet; parameters: key: A: 90–100; B: 80–89; C: 70–79; D: 60–69; E: 50–59; F: less than 50; G: Inactive; conditions: on diet surface, second-instar larvae, 5 days
Text: as §1

[6] = test system: Cotton Aphid (Aphis gossypii); experiment: Insecticidal test for cotton aphid, spray on infested squash cotyledons; conditions: 50 ppm spray, 3 days
Description: Insecticidal Test for Cotton Aphid (Aphis gossypii)
To prepare spray solutions, 1 mg of each test compound was dissolved into 1 mL of a 90:10 acetone:ethanol solvent. This 1 mL of chemical solution was added to 19 mL of water containing 0.05% Tween 20 surfactant to produce a 50 ppm spray solution.
Squash cotyledons were infested with cotton aphid (all life stages) 16–20 hours prior to application of spray solution. The solution was sprayed on both sides of each infested squash cotyledon (0.5 mL×2 each side) with a sweeping action until runoff. The plants were allowed to air dry and held for 3 days in a controlled room at 26° C. and 40% RH after which time the test was graded. Grading was by actual count using a dissecting microscope and comparison of test counts to the untreated check. Results are given in Tables 1–4 as percent control based on population reduction versus the untreated.

Compound | SM: activity against two-spotted spider mite (% control rating) [1] | CL: activity at 400 ppm against cabbage looper (% control rating) [2] | WF: activity at 200 ppm against whitefly (% control rating) [3] | TBW: activity at 400 ppm against tobacco budworm (% control rating) [4] | BAW: activity at 400 ppm against beet armyworm (% control rating) [5] | CA: activity at 50 ppm against cotton aphid (% control rating) [6]
Cc1c(-c2nc(-c3c(F)cccc3Cl)nn2C)csc1-c1ccc(OC(F)(F)C(F)Br)cc1 (stereo not drawn) | A (90–100) | A (90–100) | A (90–100) | A (90–100) | A (90–100) | A (90–100)
Cc1c(-c2nc(-c3c(F)cccc3Cl)nn2C)csc1-c1ccc(OC(F)(F)C(F)C(F)(F)F)cc1 (stereo not drawn) [drawing 216] | B (80–89) | A (90–100) | A (90–100) | A (90–100) | A (90–100) | D (60–69)
Cc1c(-c2nc(-c3c(F)cccc3Cl)nn2C)csc1-c1ccc(Oc2ccccc2)cc1 | A (90–100) | A (90–100) | A (90–100) | F (less than 50) | A (90–100) | A (90–100)
Cc1c(-c2nc(-c3c(F)cccc3Cl)nn2C)sc(Br)c1-c1ccc(OC(F)(F)C(F)Br)cc1 (stereo not drawn) | G | A (90–100) | F (less than 50) | F (less than 50) | A (90–100) | B (80–89)
Cc1c(-c2nc(-c3c(F)cccc3Cl)nn2C)csc1-c1ccc(F)cc1F [drawing 224] | G | A (90–100) | G | D (60–69) | G | A (90–100)
Cc1c(-c2nc(-c3c(F)cccc3Cl)nn2C)csc1-c1cccc(C(F)(F)F)c1F | F (less than 50) | A (90–100) | E (50–59) | G | G | A (90–100)
Cc1c(-c2nc(-c3c(F)cccc3Cl)nn2C)csc1-c1ccc(C(F)(F)F)cc1F | F (less than 50) | A (90–100) | A (90–100) | B (80–89) | A (90–100) | A (90–100)
Cn1nc(-c2c(F)cccc2Cl)nc1-c1cc(-c2ccc3c(c2)OCC3)sc1Cl | G | A (90–100) | G | F (less than 50) | G | C (70–79)
Cn1nc(-c2c(F)cccc2Cl)nc1-c1csc(-c2ccc(OC(F)(F)F)cc2F)c1 | F (less than 50) | F (less than 50) | G | G | G | C (70–79)
Cn1nc(-c2c(F)cccc2Cl)nc1-c1cc(-c2ccc(Cl)cc2F)sc1Cl | A (90–100) | A (90–100) | F (less than 50) | F (less than 50) | A (90–100) | F (less than 50)
Cc1c(-c2nc(-c3c(F)cccc3Cl)nn2C)csc1-c1ccc(Cl)cc1F | A (90–100) | A (90–100) | G | F (less than 50) | G | A (90–100)
Cc1c(-c2nc(-c3c(F)cccc3Cl)nn2C)csc1-c1cc(C(F)(F)F)ccc1F | F (less than 50) | A (90–100) | F (less than 50) | G | G | B (80–89)
Cn1nc(-c2c(F)cccc2Cl)nc1-c1csc(-c2ccc(Cl)cc2F)c1 | A (90–100) | A (90–100) | F (less than 50) | F (less than 50) | G | B (80–89)
